Data taken from patent US20110144159A1, “ETHER BENZYLIDENE PIPERIDINE ARYL CARBOXAMIDE COMPOUNDS USEFUL AS FAAH INHIBITORS” (Pfizer Inc, priority 2008, published 2011).

Target: T1, Human FAAH (Homo sapiens, UniProt O00519)
T1 construct: made in house
T1 sequence (O00519 32-579 limits assumed): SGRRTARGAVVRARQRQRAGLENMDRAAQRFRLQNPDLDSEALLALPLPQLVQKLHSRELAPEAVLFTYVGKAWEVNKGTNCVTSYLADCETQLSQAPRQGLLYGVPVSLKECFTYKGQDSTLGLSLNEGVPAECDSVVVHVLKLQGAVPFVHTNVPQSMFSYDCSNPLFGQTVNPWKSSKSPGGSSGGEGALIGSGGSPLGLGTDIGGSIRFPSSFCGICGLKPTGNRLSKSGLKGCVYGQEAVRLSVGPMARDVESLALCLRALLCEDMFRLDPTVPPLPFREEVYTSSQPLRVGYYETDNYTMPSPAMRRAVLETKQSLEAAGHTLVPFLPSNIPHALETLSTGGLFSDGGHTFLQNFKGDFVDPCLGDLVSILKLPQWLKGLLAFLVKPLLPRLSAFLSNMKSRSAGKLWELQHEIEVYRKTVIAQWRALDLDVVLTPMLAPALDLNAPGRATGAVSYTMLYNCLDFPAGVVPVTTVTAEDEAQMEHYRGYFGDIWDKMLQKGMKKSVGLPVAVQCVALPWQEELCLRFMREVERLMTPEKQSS
Assay: FAAH assay (glutamate dehydrogenase-coupled, oleamide substrate, absorbance at 340 nm)
Format: biochemical
Details: irreversible inhibition potency
Procedure: A FAAH assay may be carried out in 384-well clear polystyrene plates in a total volume of 50 μl per well. All percents are by volume. To each well was placed the reaction mixture (40 μl) containing 1-4 nM FAAH, 50 mM NaPi, pH 7.4, 3 mM α-ketoglutarate, 0.15 mM NADH, 7.5 U/ml glutamate dehydrogenase, 2 mM ADP, 1 mM EDTA, and 0.1% Triton X-100 (The concentration shown for each component was the final concentration in the assay). To this mixture was added 5 μl of a compound of Examples 1 to 20 at various concentrations prepared in 50% DMSO (or 5 μl 50% DMSO for controls). This was immediately followed by the addition of 5 μl oleamide (500 μM) dissolved in 75% EtOH/25% DMSO and the reaction mixture was mixed for 1.5 min. The final concentrations of DMSO and EtOH in the assay are each 7.5%. The reactions was then incubated at 30° C. and the absorbance at 340 nm was collected over a period of 90 min with readings taken in 30-second intervals using SpectraMax Plus^384 Microplate Spectrophotometer (Molecular Devices, Sunnyvale, Calif.). Human FAAH used in the assay was prepared as described in the patent application WO 2006/067613. The purity of the enzyme used was greater than 98% based on an analysis by SDS-polyacrylamide gel electrophoresis followed by Coomassie Blue staining.
Initial velocity data (V) is obtained from the slopes of the initial progressive curves. They are plotted as a function of substrate concentration and fit to the Michaelis-Menten equation (1) using Prism (GraphPad Software, Inc., San Diego, Calif.) software to obtain Km and Vmax values.
To obtain potencies of irreversible inhibitors, progressive curves consistent with first order inhibition kinetics (two-step irreversible inhibition mechanism) are fit to equation (2) by nonlinear least squares regressions to determine kobs values at each inhibitor concentration, where [P]t is the absorbance at time t, V0 is a constant related to the steady state rate of the uninhibited reaction, and kobs is the first order rate constant for enzyme inactivation. The inhibitor dissociation constant (Ki) and the first order rate
constant of enzyme inactivation at infinite inhibitor concentration (kinact) are then obtained by fitting the kobs vs. [I] curves to equation (3).

SMILES	hFAAH KInact/K
CCCC(C)Oc1cccc(C=C2CCN(C(=O)Nc3cccnn3)CC2)c1 (stereo not shown) [Example 30, 4-[3-(1-methylbutoxy)benzylidene]-N-pyridazin-3-ylpiperdine-1-carboxamide]	3440 M⁻¹ s⁻¹
CCCC(C)Oc1cccc(C=C2CCN(C(=O)Nc3cccnn3)CC2)c1 (stereo not shown) [Example 31, 4-[3-(1-methylbutoxy)benzylidene]-N-pyridazin-3-ylpiperidine-1-carboxamide]	7450 M⁻¹ s⁻¹
O=C(Nc1cccnn1)N1CCC(=Cc2cccc(OC3CC3)c2)CC1 [Example 33, 4-[3-(cyclopropyloxy)benzylidene]-N-pyridazin-3-ylpiperidine-1-carboxamide]	1730 M⁻¹ s⁻¹
CCCC(C)Oc1cccc(C=C2CCN(C(=O)Nc3cccnc3)CC2)c1 (stereo not shown) [Example 34, 4-[3-(1-methylbutoxy)benzylidene]-N-pyridin-3-ylpiperidine-1-carboxamide]	1810 M⁻¹ s⁻¹
CCCC(C)Oc1cccc(C=C2CCN(C(=O)Nc3cccnc3)CC2)c1 (stereo not shown) [Example 35, 4-[3-(1-methylbutoxy)benzylidene]-N-pyridin-3-ylpiperidine-1-carboxamide]	2680 M⁻¹ s⁻¹
CC1CCCC(Oc2cccc(C=C3CCN(C(=O)Nc4cccnn4)CC3)c2)C1 (stereo not shown) [Example 38, 4-{3-[(3-methylcyclohexyl)oxy]benzylidene}-N-pyridazin-3-ylpiperidine-1-carboxamide]	1090 M⁻¹ s⁻¹
CC1CCC(Oc2cccc(C=C3CCN(C(=O)Nc4cccnn4)CC3)c2)CC1 (stereo not shown) [Example 39, 4-{3-[(4-methylcyclohexyl)oxy]benzylidene}-N-pyridazin-3-ylpiperidine-1-carboxamide]	2090 M⁻¹ s⁻¹
CCCC(CC)Oc1cccc(C=C2CCN(C(=O)Nc3cccnn3)CC2)c1 (stereo not shown) [Example 41, 4-[3-(1-ethylbutoxy)benzylidene]-N-pyridazin-3-ylpiperidine-1-carboxamide]	1800 M⁻¹ s⁻¹
CCCC(CC)Oc1cccc(C=C2CCN(C(=O)Nc3cccnc3)CC2)c1 (stereo not shown) [Example 42, 4-[3-(1-ethylbutoxy)benzylidene]-N-pyridin-3-ylpiperidine-1-carboxamide]	551 M⁻¹ s⁻¹
O=C(Nc1cccnc1)N1CCC(=Cc2cccc(OC3CCOCC3)c2)CC1 [Example 43, N-pyridin-3-yl-4-[3-(tetrahydro-2H-pyran-4-yloxy)benzylidene]piperidine-1-carboxamide]	738 M⁻¹ s⁻¹
CC(C)OCCOc1cccc(C=C2CCN(C(=O)Nc3cccnn3)CC2)c1 [Example 47, 4-[3-(2-isopropoxyethoxy)benzylidene]-N-pyridazin-3-ylpiperidine-1-carboxamide]	11900 M⁻¹ s⁻¹
CC(C)(C)CCOc1cccc(C=C2CCN(C(=O)Nc3cccnn3)CC2)c1 [Example 48, 4-[3-(3,3-dimethylbutoxy)benzylidene]-N-pyridazin-3-ylpiperidine-1-carboxamide]	2580 M⁻¹ s⁻¹
COC(C)(C)CCOc1cccc(C=C2CCN(C(=O)Nc3cccnn3)CC2)c1 [Example 49, 4-[3-(3-methoxy-3-methylbutoxy)benzylidene]-N-pyridazin-3-ylpiperidine-1-carboxamide]	1290 M⁻¹ s⁻¹
CCC(C)COc1cccc(C=C2CCN(C(=O)Nc3cccnn3)CC2)c1 (stereo not shown) [Example 50, 4-[3-(2-methylbutoxy)benzylidene]-N-pyridazin-3-ylpiperidine-1-carboxamide]	4500 M⁻¹ s⁻¹
CCCCOc1cccc(C=C2CCN(C(=O)Nc3cccnn3)CC2)c1 [Example 51, 4-(3-butoxybenzylidene)-N-pyridazin-3-ylpiperidine-1-carboxamide]	8350 M⁻¹ s⁻¹
O=C(Nc1cccnn1)N1CCC(=Cc2cccc(OCC3CC=CCC3)c2)CC1 (stereo not shown) [Example 57, 4-[3-(cyclohex-3-en-1-ylmethoxy)benzylidene]-N-pyridazin-3-ylpiperidine-1-carboxamide]	16300 M⁻¹ s⁻¹
CO[C@@H](COc1cccc(C=C2CCN(C(=O)Nc3cccnn3)CC2)c1)c1ccccc1 [Example 58, 4-{3-[(2R)-2-methoxy-2-phenylethoxy]benzylidene}-N-pyridazin-3-ylpiperidine-1-carboxamide]	473 M⁻¹ s⁻¹
CC(C)CCOc1cccc(C=C2CCN(C(=O)Nc3cccnn3)CC2)c1 [Example 62, 4-[3-(3-methylbutoxy)benzylidene]-N-pyridazin-3-ylpiperidine-1-carboxamide]	15200 M⁻¹ s⁻¹

Other lines, results leading:

hFAAH KInact/K	SMILES
712 M⁻¹ s⁻¹	CC1CCCC(Oc2cccc(C=C3CCN(C(=O)Nc4cccnc4)CC3)c2)C1 (stereo not shown) [Example 32, 4-{3-[(3-methylcyclohexyl)oxy]benzylidene}-N-pyridin-3-ylpiperidine-1-carboxamide]
992 M⁻¹ s⁻¹	CC1CCC(Oc2cccc(C=C3CCN(C(=O)Nc4cccnc4)CC3)c2)CC1 (stereo not shown) [Example 36, 4-{3-[(4-methylcyclohexyl)oxy]benzylidene}-N-pyridin-3-ylpiperidine-1-carboxamide]
1380 M⁻¹ s⁻¹	CC(C)Oc1cccc(C=C2CCN(C(=O)Nc3cccnc3)CC2)c1 [Example 37, 4-(3-isopropoxybenzylidene)-N-pyridin-3-ylpiperidine-1-carboxamide]
2350 M⁻¹ s⁻¹	CC(C)Oc1cccc(C=C2CCN(C(=O)Nc3cccnn3)CC2)c1 [Example 40, 4-(3-isopropoxybenzylidene)-N-pyridazin-3-ylpiperidine-1-carboxamide]
563 M⁻¹ s⁻¹	O=C(Nc1cccnn1)N1CCC(=Cc2cccc(OC3CCOCC3)c2)CC1 [Example 44, N-pyridazin-3-yl-4-[3-(tetrahydro-2H-pyran-4-yloxy)benzylidene]piperidine-1-carboxamide]
573 M⁻¹ s⁻¹	O=C(Nc1cccnn1)N1CCC(=Cc2cccc(OCC3CCCO3)c2)CC1 (stereo not shown) [Example 45, N-pyridazin-3-yl-4-[3-(tetrahydrofuran-2-ylmethoxy)benzylidene]piperidine-1-carboxamide]
31600 M⁻¹ s⁻¹	Cc1cccc(OCCOc2cccc(C=C3CCN(C(=O)Nc4cccnn4)CC3)c2)c1 [Example 52, 4-{3-[2-(3-methylphenoxy)ethoxy]benzylidene}-N-pyridazin-3-ylpiperidine-1-carboxamide]
1750 M⁻¹ s⁻¹	O=C(Nc1cccnn1)N1CCC(=Cc2cccc(OCC3CCOC3)c2)CC1 (stereo not shown) [Example 53, N-pyridazin-3-yl-4-[3-(tetrahydrofuran-3-ylmethoxy)benzylidene]piperidine-1-carboxamide]
1880 M⁻¹ s⁻¹	Cc1cc(COc2cccc(C=C3CCN(C(=O)Nc4cccnn4)CC3)c2)no1 [Example 54, 4-{3-[(5-methylisoxazol-3-yl)methoxy]benzylidene}-N-pyridazin-3-ylpiperidine-1-carboxamide]
35 M⁻¹ s⁻¹	CN1CCCCC1COc1cccc(C=C2CCN(C(=O)Nc3cccnn3)CC2)c1 (stereo not shown) [Example 55, 4-{3-[(1-methylpiperidin-2-yl)methoxy]benzylidene}-N-pyridazin-3-ylpiperidine-1-carboxamide]
149 M⁻¹ s⁻¹	COC(COc1cccc(C=C2CCN(C(=O)Nc3cccnn3)CC2)c1)c1ccccc1 (stereo not shown) [Example 56, 4-[3-(2-methoxy-2-phenylethoxy)benzylidene]-N-pyridazin-3-ylpiperidine-1-carboxamide]
2190 M⁻¹ s⁻¹	O=C(Nc1cccnn1)N1CCC(=Cc2cccc(OCCc3cnoc3)c2)CC1 [Example 60, 4-[3-(2-isoxazol-4-ylethoxy)benzylidene]-N-pyridazin-3-ylpiperidine-1-carboxamide]
1420 M⁻¹ s⁻¹	CC(C)C(C)Oc1cccc(C=C2CCN(C(=O)Nc3cccnn3)CC2)c1 (stereo not shown) [Example 61, 4-[3-(1,2-dimethylpropoxy)benzylidene]-N-pyridazin-3-ylpiperidine-1-carboxamide]
